Laboratory results: patent US10519147B2 (Merck Sharp & Dohme Corp., priority 2015, dated 2019)
pIC50: −log10 of the molar value.

Experiments:
[1] = target: T1, human Nav1.7 (Homo sapiens, UniProt Q15858); assay: IonWorks Quattro automated patch-clamp, inactivated state block of Nav1.7; type: cell-based; conditions: channels stably expressed in HEK 293 cells; double-pulse protocol, inactivated state block; read-out: potency for the Nav 1.7 sodium ion channel (IC50, as measured by IonWorks)
T1 construct: expressed in transfected cells; host or cells: HEK 293
Outline: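 HEK293 stable lines, IonWorks PPC patch clamp (nystatin/amphotericin access); double-pulse protocol giving ~50% inactivation: holding −100 mV (Nav1.7) or −110 mV (Nav1.5), 1000 ms prepulse to −10 or −30 mV, 10 ms repolarization, 10 ms test pulse. Peak current inhibition versus concentration fitted to Hill equation for IC50.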

[2] = target: T2, human Nav1.5 (Homo sapiens, UniProt Q14524); assay: IonWorks Quattro automated patch-clamp, Nav1.5 (selectivity against Nav1.7); type: cell-based; conditions: IonWorks measurement, HEK 293 cells, inactivated state block
T2 construct: expressed in transfected cells; host or cells: HEK 293
Experimental: Compounds were tested on human Nav1.7 and Nav1.5 channels stably expressed in HEK 293 cells. […] Cells were sealed on a planar substrate using the Population Patch […] (PPC) technology. Electrical access was obtained using both nystatin and amphotericin. A double-pulse protocol was used for the determination of IC50 values for inactivated state block. Nav1.7 and Nav1.5 expressing cells were voltage clamped at −100 mV and −110 mV, respectively. A depolarizing prepulse to −10 mV (Nav1.7) or −30 mV (Nav1.5) for 1000 ms followed by a 10 ms repolarization to −100 mV (Nav1.7) or −110 mV (Nav1.5) was given to generate fractional channel inactivation of 50%, followed by a 10 ms test pulse to −10 mV (Nav1.7) or −30 mV (Nav1.5) to measure peak current in control conditions and after compound addition. The following recording solutions were used (mM). External: 150 NaCl, 2 CaCl2, 5 KCl, 1 Mg Cl2, 10 HEPES, 12 Dextrose; internal: 120 CsF, 30 CsCl, 10 EGTA, 5 HEPES, 5 NaF, 2 MgCl2.
For all electrophysiology experiments, offline analysis was used to determine percent inhibition as a function of drug concentration. IC50 values were determined by fitting to the Hill equation.

T1 sequence (Q15858 whole entry): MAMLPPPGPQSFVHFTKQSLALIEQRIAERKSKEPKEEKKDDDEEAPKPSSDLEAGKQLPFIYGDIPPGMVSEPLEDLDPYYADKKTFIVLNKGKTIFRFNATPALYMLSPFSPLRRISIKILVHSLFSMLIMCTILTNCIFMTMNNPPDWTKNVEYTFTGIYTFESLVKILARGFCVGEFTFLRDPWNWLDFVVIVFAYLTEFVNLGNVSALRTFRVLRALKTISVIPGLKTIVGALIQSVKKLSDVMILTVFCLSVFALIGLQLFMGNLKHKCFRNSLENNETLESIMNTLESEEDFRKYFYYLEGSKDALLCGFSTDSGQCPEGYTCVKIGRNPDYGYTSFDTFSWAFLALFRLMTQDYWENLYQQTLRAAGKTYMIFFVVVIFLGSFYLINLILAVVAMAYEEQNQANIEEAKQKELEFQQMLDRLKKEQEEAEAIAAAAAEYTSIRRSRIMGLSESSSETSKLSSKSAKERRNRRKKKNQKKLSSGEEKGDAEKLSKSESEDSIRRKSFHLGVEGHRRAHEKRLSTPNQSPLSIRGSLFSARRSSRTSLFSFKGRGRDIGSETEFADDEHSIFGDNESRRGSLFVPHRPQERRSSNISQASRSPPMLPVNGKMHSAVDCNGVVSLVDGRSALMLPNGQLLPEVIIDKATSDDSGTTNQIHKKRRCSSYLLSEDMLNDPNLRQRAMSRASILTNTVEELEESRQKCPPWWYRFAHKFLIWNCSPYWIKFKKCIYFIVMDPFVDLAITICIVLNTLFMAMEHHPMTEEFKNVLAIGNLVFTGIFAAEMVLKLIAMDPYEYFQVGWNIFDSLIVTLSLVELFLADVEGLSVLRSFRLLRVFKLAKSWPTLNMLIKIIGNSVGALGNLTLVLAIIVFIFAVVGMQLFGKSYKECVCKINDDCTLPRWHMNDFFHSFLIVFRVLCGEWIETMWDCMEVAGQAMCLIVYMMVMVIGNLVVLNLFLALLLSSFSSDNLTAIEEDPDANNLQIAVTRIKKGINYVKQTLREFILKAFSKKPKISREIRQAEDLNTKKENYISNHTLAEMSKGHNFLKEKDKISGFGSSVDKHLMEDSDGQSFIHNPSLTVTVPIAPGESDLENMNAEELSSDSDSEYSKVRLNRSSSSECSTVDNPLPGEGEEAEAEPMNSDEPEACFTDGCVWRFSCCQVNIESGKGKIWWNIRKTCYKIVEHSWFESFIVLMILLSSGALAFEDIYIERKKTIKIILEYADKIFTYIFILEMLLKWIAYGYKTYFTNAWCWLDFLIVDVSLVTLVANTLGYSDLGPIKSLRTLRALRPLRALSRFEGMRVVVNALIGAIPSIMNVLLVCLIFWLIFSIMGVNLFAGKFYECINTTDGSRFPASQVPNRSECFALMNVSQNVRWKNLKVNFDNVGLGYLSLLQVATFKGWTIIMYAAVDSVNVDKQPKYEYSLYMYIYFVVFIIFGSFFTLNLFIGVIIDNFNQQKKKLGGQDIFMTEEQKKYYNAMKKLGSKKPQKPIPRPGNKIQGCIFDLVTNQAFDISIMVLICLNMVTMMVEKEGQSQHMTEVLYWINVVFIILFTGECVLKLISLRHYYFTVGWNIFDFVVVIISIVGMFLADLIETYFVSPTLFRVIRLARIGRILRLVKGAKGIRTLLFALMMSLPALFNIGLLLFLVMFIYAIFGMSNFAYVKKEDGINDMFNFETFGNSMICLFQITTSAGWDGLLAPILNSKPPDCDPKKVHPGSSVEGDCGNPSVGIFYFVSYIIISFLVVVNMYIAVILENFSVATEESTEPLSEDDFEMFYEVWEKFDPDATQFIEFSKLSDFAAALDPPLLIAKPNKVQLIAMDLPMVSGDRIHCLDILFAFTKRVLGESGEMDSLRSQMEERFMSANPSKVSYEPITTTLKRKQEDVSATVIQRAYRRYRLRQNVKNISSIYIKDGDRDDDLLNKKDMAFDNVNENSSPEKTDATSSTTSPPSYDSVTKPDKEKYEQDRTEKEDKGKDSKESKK
T2 sequence (Q14524 whole entry): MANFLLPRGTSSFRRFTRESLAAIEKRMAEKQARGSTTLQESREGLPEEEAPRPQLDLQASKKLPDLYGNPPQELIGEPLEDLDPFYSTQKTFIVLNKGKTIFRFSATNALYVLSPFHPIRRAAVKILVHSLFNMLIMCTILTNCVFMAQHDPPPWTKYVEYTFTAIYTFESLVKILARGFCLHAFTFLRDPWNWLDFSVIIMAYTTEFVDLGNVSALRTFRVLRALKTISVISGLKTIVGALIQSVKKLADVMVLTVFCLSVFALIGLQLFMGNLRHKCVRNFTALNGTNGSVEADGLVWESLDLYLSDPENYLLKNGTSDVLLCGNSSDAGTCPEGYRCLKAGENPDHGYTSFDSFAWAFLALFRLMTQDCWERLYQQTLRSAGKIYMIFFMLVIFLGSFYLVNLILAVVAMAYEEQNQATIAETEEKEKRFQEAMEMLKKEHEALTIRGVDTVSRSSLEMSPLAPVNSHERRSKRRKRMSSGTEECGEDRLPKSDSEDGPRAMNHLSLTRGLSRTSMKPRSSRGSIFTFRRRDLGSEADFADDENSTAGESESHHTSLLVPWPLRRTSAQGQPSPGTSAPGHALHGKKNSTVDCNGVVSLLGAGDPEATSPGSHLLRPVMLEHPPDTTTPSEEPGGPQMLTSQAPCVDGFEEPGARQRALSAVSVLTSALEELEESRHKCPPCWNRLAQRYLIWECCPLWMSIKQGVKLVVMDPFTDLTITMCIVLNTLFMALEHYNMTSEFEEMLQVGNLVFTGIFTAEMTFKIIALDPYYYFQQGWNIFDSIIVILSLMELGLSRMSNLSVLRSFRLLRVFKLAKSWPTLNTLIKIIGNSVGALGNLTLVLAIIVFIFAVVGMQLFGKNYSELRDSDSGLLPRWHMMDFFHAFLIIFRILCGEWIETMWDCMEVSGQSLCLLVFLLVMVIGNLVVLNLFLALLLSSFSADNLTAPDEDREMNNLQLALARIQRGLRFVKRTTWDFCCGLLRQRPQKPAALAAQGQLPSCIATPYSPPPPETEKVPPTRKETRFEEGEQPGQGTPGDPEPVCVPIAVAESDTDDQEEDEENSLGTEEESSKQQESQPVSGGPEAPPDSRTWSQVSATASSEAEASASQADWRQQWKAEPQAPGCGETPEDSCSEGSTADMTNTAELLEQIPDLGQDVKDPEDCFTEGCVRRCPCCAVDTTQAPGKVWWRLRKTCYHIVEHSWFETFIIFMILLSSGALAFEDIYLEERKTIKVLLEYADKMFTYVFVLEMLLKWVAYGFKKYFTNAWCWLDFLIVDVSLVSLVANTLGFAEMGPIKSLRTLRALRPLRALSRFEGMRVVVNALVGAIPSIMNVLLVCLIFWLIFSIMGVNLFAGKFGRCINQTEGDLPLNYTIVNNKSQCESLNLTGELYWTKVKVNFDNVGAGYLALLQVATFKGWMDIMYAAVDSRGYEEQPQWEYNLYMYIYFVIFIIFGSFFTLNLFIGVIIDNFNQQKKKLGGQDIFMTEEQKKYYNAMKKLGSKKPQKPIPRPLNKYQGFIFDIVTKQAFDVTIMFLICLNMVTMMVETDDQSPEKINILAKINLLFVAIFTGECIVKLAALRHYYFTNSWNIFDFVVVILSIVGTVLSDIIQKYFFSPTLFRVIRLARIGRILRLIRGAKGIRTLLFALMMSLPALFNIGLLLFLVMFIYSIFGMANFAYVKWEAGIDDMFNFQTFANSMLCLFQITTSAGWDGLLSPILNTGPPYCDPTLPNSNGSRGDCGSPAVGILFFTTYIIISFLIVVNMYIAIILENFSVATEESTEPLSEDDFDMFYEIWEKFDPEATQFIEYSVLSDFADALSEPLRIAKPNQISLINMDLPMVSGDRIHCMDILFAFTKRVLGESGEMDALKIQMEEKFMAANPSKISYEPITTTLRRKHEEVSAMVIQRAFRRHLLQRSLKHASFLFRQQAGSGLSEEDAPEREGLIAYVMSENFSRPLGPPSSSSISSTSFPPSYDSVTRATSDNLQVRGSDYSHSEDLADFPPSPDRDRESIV

| SMILES | pIC50 [1] | ratio of Nav 1.7 potency:Nav 1.5 potency [2] |
| --- | --- | --- |
| CC(C)C[C@@H](CNCCCCNc1cc(F)c(S(=O)(=O)Nc2ncns2)cc1Cl)[C@@H](C)N [Ex 16-85, 4-((4-(((S)-2-((R)-1-aminoethyl)-4-methylpentyl)-amino)butyl)amino)-5-chloro-2-fluoro-N-(1,2,4-thiadiazol-5-yl) benzenesulfonamide] | 8.35 | > 7330 |
| N[C@@H]1CCC[C@H]1NCCCCNc1cc(F)c(S(=O)(=O)Nc2ncns2)cc1F [Ex 16-86, 4-[4-[[(1R,2R)-2-aminocyclopentyl]amino]butylamino]-2,5-difluoro-N-(1,2,4-thiadiazol-5-yl)benzenesulfonamide] | 7.41 | > 850 |
| CCNCCNCCCCNc1cc(F)c(S(=O)(=O)Nc2ncns2)cc1Br [Ex 16-92, 5-bromo-4-[4-[2-(ethylamino)ethylamino]butylamino]-2-fluoro-N-(1,2,4-thiadiazol-5-yl)benzenesulfonamide] | 8.47 | > 9700 |
| N[C@H]1CC[C@H](NCCCCNc2cc(F)c(S(=O)(=O)Nc3ncns3)cc2Br)C1 [Ex 16-95, 4-[4-[[(1S,3S)-3-aminocyclopentyl]amino]butylamino]-5-bromo-2-fluoro-N-(1,2,4-thiadiazol-5-yl)benzenesulfonamide] | 7.46 | > 940 |

More lines, in order of rising pIC50 [1], values ahead:

| pIC50 [1] | SMILES | ratio of Nav 1.7 potency:Nav 1.5 potency [2] |
| --- | --- | --- |
| 7.39 | N[C@@H]1CCC[C@@H]1NCCCCNc1cc(F)c(S(=O)(=O)Nc2ncns2)cc1Br [Ex 16-93, 4-[4-[[(1S,2R)-2-aminocyclopentyl]amino]butylamino]-5-bromo-2-fluoro-N-(1,2,4-thiadiazol-5-yl)benzenesulfonamide] | > 800 |
| 8.02 | NCCNCCCCNc1cc(F)c(S(=O)(=O)Nc2ncns2)cc1Br [Ex 16-88, 4-[4-(2-aminoethylamino)butylamino]-5-bromo-2-fluoro-N-(1,2,4-thiadiazol-5-yl)benzenesulfonamide] | > 3400 |
| 8.07 | NCC1(NCCCCNc2cc(F)c(S(=O)(=O)Nc3ncns3)cc2Br)CC1 [Ex 16-98, 4-[4-[[1-(aminomethyl)cyclopropyl]amino]butylamino]-5-bromo-2-fluoro-N-(1,2,4-thiadiazol-5-yl) benzenesulfonamide] | > 3840 |
| 8.14 | N[C@@H]1CCC[C@H]1NCCCCNc1cc(F)c(S(=O)(=O)Nc2ncns2)cc1Br [Ex 16-94, 4-[4-[[(1R,2R)-2-aminocyclopentyl]amino]butylamino]-5-bromo-2-fluoro-N-(1,2,4-thiadiazol-5-yl)benzenesulfonamide] | 3150 |
| 8.23 | C[C@@H](N)CNCCCCNc1cc(F)c(S(=O)(=O)Nc2ncns2)cc1Br [Ex 16-99, 4-[4-[[(2R)-2-aminopropyl]amino]butylamino]-5-bromo-2-fluoro-N-(1,2,4-thiadiazol-5-yl)benzenesulfonamide] | 3900 |
